Reference: PMC4595607, “mRNA export through an additional cap-binding complex consisting of NCBP1 and NCBP3” (Nature Communications, 2015)
Substitutions are numbered along the chain they refer to.

What was measured:
[1] = target: T1, NCBP3 (aa 1-282); C17orf85 (Homo sapiens, UniProt Q53F19, W155A/D157A/D158A); test: affinity purification on m7GTP-agarose, Coomassie SDS-PAGE; assay type: binding; details: compound immobilised as γ-aminohexyl m7GTP-agarose; WLDD motif mutant (ALAA)
T1 construct: N-terminal fragment 1-282 with core RRM; expressed in E. coli BL21-AI, purified; untagged for MST and CD (MBP/His construct cloned)
T1 sequence (Q53F19 1-282 W155A/D157A/D158A): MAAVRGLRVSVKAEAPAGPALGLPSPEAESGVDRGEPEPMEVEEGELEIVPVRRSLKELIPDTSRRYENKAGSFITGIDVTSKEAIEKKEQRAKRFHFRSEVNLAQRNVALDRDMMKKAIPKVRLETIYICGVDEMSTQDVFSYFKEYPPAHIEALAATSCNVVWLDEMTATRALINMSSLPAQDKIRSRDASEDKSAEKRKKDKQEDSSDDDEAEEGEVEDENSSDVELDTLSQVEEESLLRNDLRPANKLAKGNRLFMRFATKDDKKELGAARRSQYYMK

[2] = target: T2, NCBP3 (aa 1-282); C17orf85 (Homo sapiens, UniProt Q53F19); test: as above; assay type: binding; details: compound immobilised as γ-aminohexyl m7GTP-agarose
T2 construct: N-terminal fragment 1-282 with core RRM; expressed in E. coli BL21-AI, purified; untagged for MST and CD (MBP/His construct cloned)
T2 sequence (Q53F19 1-282): T1 sequence (Q53F19 1-282 W155A/D157A/D158A) with A155W, A157D, A158D

[3] = target: T3, recombinant NCBP3 from E. coli lysates (Homo sapiens, UniProt Q53F19); test: affinity purification on m7GTP-agarose from E. coli lysate, western blot; assay type: biochemical; details: compound immobilised as γ-aminohexyl m7GTP-agarose
T3 construct: full-length, N-terminal His tag (pETG10A-NCBP3; MBP/His version also made), E. coli BL21-AI lysate
T3 sequence (Q53F19 1-620): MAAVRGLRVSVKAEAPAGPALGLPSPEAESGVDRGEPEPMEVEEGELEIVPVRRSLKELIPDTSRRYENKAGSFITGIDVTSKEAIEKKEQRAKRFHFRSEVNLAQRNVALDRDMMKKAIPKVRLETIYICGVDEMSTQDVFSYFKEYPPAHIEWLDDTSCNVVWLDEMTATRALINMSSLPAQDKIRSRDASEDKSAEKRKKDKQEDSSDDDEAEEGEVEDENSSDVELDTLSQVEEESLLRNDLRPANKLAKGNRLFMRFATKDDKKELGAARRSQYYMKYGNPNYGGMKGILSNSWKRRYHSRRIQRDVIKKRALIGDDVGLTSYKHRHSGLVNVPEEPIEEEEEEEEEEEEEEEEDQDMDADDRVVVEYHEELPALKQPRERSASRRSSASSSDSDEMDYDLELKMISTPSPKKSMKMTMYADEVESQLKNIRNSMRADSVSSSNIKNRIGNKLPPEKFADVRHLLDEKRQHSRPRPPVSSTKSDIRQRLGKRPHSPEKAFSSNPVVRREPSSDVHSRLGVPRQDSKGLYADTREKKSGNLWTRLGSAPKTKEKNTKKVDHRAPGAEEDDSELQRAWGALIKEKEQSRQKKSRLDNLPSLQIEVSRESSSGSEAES

[4] = tested on: NCBP3 1-282 (RRM fragment) (Homo sapiens); test: MST; details: 5' m7G cap (CAP0); 3' amino linker; MST: equal volumes of MST-1 (50 mM Tris-HCl pH 7.4, 150 mM NaCl, 10 mM MgCl2, 0.05% Tween-20; RNA 50 nM) and MST-2 (20 mM Tris-HCl pH 7.4, 300 mM NaCl, 5% …)

Molecule | loss of binding [1] | affinity purification on m7GTP-agarose, Coomassie SDS-PAGE [2] | affinity purification on m7GTP-agarose from E. coli lysate, western blot [3] | Kd [4] [µM]
C[n+]1cn([C@@H]2O[C@H](COP(=O)(O)OP(=O)(O)OP(=O)(O)O)[C@@H](O)[C@H]2O)c2nc(N)[nH]c(=O)c21 [m^7GTP] | mutation of the NCBP3 WLDD motif to ALAA resulted in loss of binding | recombinant NCBP3 selectively bound m^7GTP but not GTP | m^7GTP versus GTP-affinity purification and western blotting of recombinant NCBP3 from E. coli lysates | –
CAP-RNA oligo (CAP0), DyLight | – | – | – | 15.8
